From patent US20240327423A1, “A SERIES OF PYRROLE DERIVATIVES AND THEIR PREPARATION METHOD AND THERAPEUTIC USE” (SHENZHEN SUNGENING BIO-MEDICAL CO., LTD, priority 2020, published 2024)
≈ marks a conversion by molar mass, not a printed value. Read-outs that look alike come from different tables or passages of the source.

What was measured:
[1] = Liver microsomal stability test, human; format: in vitro ADME; conditions: Human liver microsomes
Method: (§1) • 1: Add 10 μL of working solutions of test product or reference product and 80 μL of microsomal working solution (liver microsomal protein concentration of 0.5 mg/mL) to wells of TO, T5, T10, T20, T30, T60, and NCF60, and only microsomal working solution is added to the Blank60 wells. Then the samples of Blank60, T10, T20, T30 and T60, except for TO and NCF60, are placed in a water bath set at 37° C. and incubate for approximately 10 mins; • 2: Add 300 μL of termination solution (acetonitrile solution containing 200 ng/mL tolbutamide and 200 ng/mL labetalol) to Sample TO, followed by 10 ul of NADPH regeneration system working solution; • 3: After incubation of Blank60, T5, T10, T20, T30 and T60 on incubation plates, add 10 μL of NADPH regeneration system working solution to each sample well to start the reaction, and 10 uL of 100 mM potassium phosphate buffer is add to the NCF60 sample wells; • 4: After incubation for appropriate times (e.g., 5, 10, 20, 30 and 60 mins), 300 μL of termination solution is add to each sample well of test product and reference product on Blank60, T5, T10, T20, T30, T60 and NCF60 plates, respectively, to terminate the reaction. • 5: All sample plates are shaken well and centrifuged at 4000 rpm for 20 min, take 100 μL of the supernatant of the test product or reference product, dilute in 300 μL of pure water for LC-MS/MS analysis, respectively. • 6: Data analysis, T½ and CLint(mic) (μL/min/mg) values are calculated based on the first-order elimination kinetics, and the equations of first-order elimination kinetics are: […]

[2] = Pharmacokinetic test in SD rats, single oral administration; format: in vivo; conditions: single oral administration 10 mg/kg, test compound mixed with F901318, plasma; for half-life: read-out: T½ (converted)
Method: Pharmacokinetic study is performed on SD rats receiving single oral administration of each test compound mixed with F901318 (10 mg/kg, 3 rats per group). Test compounds and F901318 are dissolved with […]+10% solutol+85% saline, vortexed for 1-2 mins and ultra-sonicated for 5-10 mins to form a colorless clear drug solution. The animals are fasted overnight before oral administration, and resumed feeding 4 hours after administration. After oral administration, pharmacokinetic samples are collected from orbital blood of SD rats at 0.083 h, 0.25 h, 0.5 h, 1 h, 2 h, 4 h, 6 h, 8 h, and 24 h, and three whole blood samples are collected at each time point in a volume of 0.2-0.3 mL. Blood samples are placed on ice immediately after collected, and the plasma is separated by centrifugation within 15 min (centrifugation conditions: 8000 rpm, 1 min, and at room temperature).
The collected plasma is stored at −20° C. prior to analysis. Transfer 20 μL of plasma sample into an 0.5 mL EP tube, add 200 μL of working internal standard solution (blank group is without internal standard, using the same volume of solvent instead), vortex and mix for 3 min centrifuge at 13500 rpm for 10 min, take 100 μL of supernatant and analyze with LC-MS/MS.

[3] = system: Aspergillus fumigatus (ATCC MYA-4609/AF293/CBS 101355); experiment: Measurement of minimum inhibitory concentration (MIC), AF293; format: cell-based; conditions: CBS101355; Aspergillus fumigatus AF293, 35° C., 48 hours, RPMI1640; read-out: AF293: MIC
Method: (§2) New streaks are made with glycerol stock solution of the strains of Aspergillus fumigatus (ATCC MYA-4609/AF 293/CBS 101355) on Sabouraud's dextrose agar (SDA), incubate at 35° C. and a humidity of 40-70% for 72 hours. Other strains are processed as the same as AF293.
(§3) RPMI1640: one packet of RPMI1640 powder is dissolved in 1 L purified water and mixed well, add 0.165M MOPS, adjust the pH to 7.0, sterilize by filtration with 0.22 um membrane, and store at 4° C. for no more than 3 months.
(§4) Physiological saline: weigh 9 g of sodium chloride powder and dissolve in 1 L of purified water, and mixed well. Sterilize at 121° C. for 30 min, store at room temperature (RT) for no more than 1 week.
(§5) Dissolve the test compound and stock solution of one control compound with DMSO and obtain solutions at a concentration of 12.8 mg/mL
(§6) The maximum concentration of each compound is 0.8 mg/mL (e.g., 150 μL of dimethyl sulfoxide+10 uL of 12.8 mg/mL compound/control). Column 1 is filled with 40 μL of compound and columns 2 to 11 with 20 μL of dimethyl sulfoxide. Transfer 20 μL of compound from column 1 to column 2 to dilute the concentration. Repeat the above steps up to column 11 to give 2× serial dilutions.
(§7) 2 μL of the above 2× serial dilutions are injected into each hole of the corresponding test plate using a multichannel pipette.
(§8) Drop 5 ml of saline on the Aspergillus fumigatus SDA plate. The spores were carefully wiped off from the surface of the plate with an L-shaped coating rod. Then the suspension is transferred into a sterile tube. After shaking, let the tube stand for 5 to 10 minutes. Count the number of spores in the upper suspension with a hemocytometer and check the purity. Adjust the inoculum concentration to 0.2-2.5×10^4 spores/mL.
(§9) Inject 198 μL of diluted inoculum into each holes of the corresponding test plate using a multichannel pipette.
(§10) Incubate at 35° C. for 48 hours.
(§11) To facilitate scoring of the presence or absence of growth on the wall, a magnifying glass is used. The tested 96-well microplates were photographed and the optical density at 530 nm is read with an enzyme marker (Tecan Spark).

[4] = Liver microsomal stability test, mouse; format: in vitro ADME; conditions: Mouse liver microsomes
Method: as §1

[5] = system: Aspergillus flavus (ATCC MYA-1004); experiment: Measurement of minimum inhibitory concentration (MIC), ATCC MYA-1004; format: cell-based; conditions: Aspergillus flavus ATCC MYA-1004, 35° C., 48 hours
Method: as §2, §3, §4, §5, §6, §7, §8, §9, §10, §11

[6] = system: Aspergillus fumigatus (ATCC-204305); experiment: Measurement of minimum inhibitory concentration (MIC), ATCC 204305; format: cell-based; conditions: Aspergillus fumigatus ATCC 204305, 35° C., 48 hours; for MIC: ATCC204305
Method: New streaks are made with glycerol stock solution of the strains of Aspergillus [NT] MYA-4609/AF 293/CBS 101355) on Sabouraud's dextrose agar (SDA), incubate at 35° C. and a humidity of 40-70% for 72 hours. Other strains are processed as the same as AF293. RPMI1640: one packet of RPMI1640 powder is dissolved in 1 L purified water and mixed well, add 0.165M MOPS, adjust the pH to 7.0, sterilize by filtration with 0.22 um membrane, and store at 4° C. for no more than 3 months. Physiological saline: weigh 9 g of sodium chloride powder and dissolve in 1 L of purified water, and mixed well. […] Dissolve the test compound and stock solution of one control compound with DMSO and obtain solutions at a concentration of 12.8 mg/mL The maximum concentration of each compound is 0.8 mg/mL (e.g., 150 μL of dimethyl sulfoxide+10 uL of 12.8 mg/mL compound/control). […] Repeat the above steps up to column 11 to give 2× serial dilutions. 2 μL of the above 2× serial dilutions are injected into each hole of the corresponding test plate using a multichannel pipette. Drop 5 ml of saline on the Aspergillus fumigatus SDA plate. The spores were carefully wiped off from the surface of the plate with an L-shaped coating rod. Then the suspension is transferred into a sterile tube. After shaking, let the tube stand for 5 to 10 minutes. Count the number of spores in the upper suspension with a hemocytometer and check the purity. Adjust the inoculum concentration to 0.2-2.5×10^4 spores/mL. Inject 198 μL of diluted inoculum into each holes of the corresponding test plate using a multichannel pipette. Incubate at 35° C. for 48 hours. […] To facilitate scoring of the presence or absence of growth on the wall, a magnifying glass is used. The tested 96-well microplates were photographed and the optical density at 530 nm is read with an enzyme marker (Tecan Spark).

[7] = system: Aspergillus flavus (ATCC 204304); experiment: Measurement of minimum inhibitory concentration (MIC), ATCC 204304; format: cell-based; conditions: ATCC204304; Aspergillus flavus ATCC 204304, 35° C., 48 hours
Method: as §2, §3, §4, §5, §6, §7, §8, §9, §10, §11

[8] = system: Aspergillus fumigatus ATCCMYA-4690 (AF293); experiment: Survival rate experiment II of mouse bloodstream infection model with Aspergillus fumigatus; format: in vivo; conditions: immunosuppressed male CD-1 mouse
Method: Test Case 6: Survival Rate Experiment II of Mouse Bloodstream Infection Model with Aspergillus fumigatus • Animal for experiment: male CD-1 mouse, 6-8 weeks old, 10 animals per group. • Induction of immunosuppression: the day of infection is defined as day 0, and mouses are injected intraperitoneally with corresponding doses of cyclophosphamide on day −4 (150 mg/kg), day −1 (100 mg/kg), and day 2 (100 mg/kg), respectively. • Microbial pathogen: Aspergillus fumigatus ATCCMYA-4690 (AF293). • Collection conditions of inoculum: culture on SDA culture plates, incubate at 25° C. for at least 7 days, collect with PBS+0.1% Tween 20, and count microscopically; • Inoculation level, route and volume: 3.90E+05 CFU/mouse, tail vein injection, injection volume of 100 μL/mouse; • Treatment: Treatment is started 24 hours after infection, and test compounds are dissolved in PEG400 (0.3 mg/mL), […] The administrated mouses are observed for 8 hours.

[9] = 0.5 mg/mL protein, 37° C., NADPH
[10] = SD, rat, plasma, po, 10 mg/kg, read-out: AUC
[11] = SD, rat, plasma, po, 10 mg/kg, read-out: Cmax
[12] = SD, rat, plasma, po, 10 mg/kg, read-out: Tmax

CLint scaled [1, 9] [mL/min/kg]	half-life [1, 9] [min]	Remaining, (T = 60 min) [1] [%]	AUC [2, 10] [ng·h/mL]	Cmax [2, 11] [ng/mL]	Tmax [2, 12] [min]	half-life ([2]; SD, rat, plasma, po, 10 mg/kg) [min]	MIC [3] [µg/mL]	CLint scaled [4, 9] [mL/min/kg]	half-life [4, 9] [min]	Remaining, (T = 60 min) [4] [%]	MIC [6] [µg/mL]	SMILES	ATCC 204305: MIC [6] [µg/mL]	also measured
32.6	38.3	35.7	48300	3860	140	389	0.03 (≈ 0.0588 µM)	65.2	38.3	34.4	–	Cc1cc(-c2ccccc2)c(C(=O)C(=O)Nc2ccc3c(c2)CC2CN(c4ncc(F)cn4)CCN32)n1C (stereo not drawn) [Example 1, 2-(1,5-dimethyl-3-phenyl-1H-pyrrol-2-yl)-N-(2-(5-fluoropyrimidin-2-yl)-1,2,3,4,10,10a-hexahydropyrazino[1,2-a]indol-8-yl)-2-oxoacetamide]	–	–
66.4	18.8	10.5	–	–	–	–	0.03 (≈ 0.0551 µM)	114	21.8	14.3	0.016 (≈ 0.0294 µM)	Cc1cc(-c2ccccc2)c(C(=O)C(=O)Nc2cc(F)c3c(c2)OCC2CN(c4ncc(F)cn4)CCN32)n1C (stereo not drawn) [Example 4]	–	MIC [5]: 0.008 µg/mL (≈ 0.0147 µM); MIC [7]: 0.016 µg/mL (≈ 0.0294 µM)
–	–	–	12800	1520	50	297	0.008 (≈ 0.0147 µM)	–	–	–	0.016 (≈ 0.0294 µM)	Cc1cc(-c2ccccc2F)c(C(=O)C(=O)Nc2ccc3c(c2)OC[C@H]2CN(c4ncc(F)cn4)CCN32)n1C [Example 35, (R)-2-(3-(2-fluorophenyl)-1,5-dimethyl-1H-pyrrol-2-yl)-N-(3-(5-fluoropyrimidin-2-yl)-1,2,3,4,4a, 5-hexahydrobenzo [b]pyrazino[1,2-d] [1,4]oxazin-8-yl)-2-oxoacetamide]	–	–
–	–	–	–	–	–	–	–	–	–	–	–	Cc1cc(-c2ccccc2F)c(C(=O)C(=O)Nc2ccc3c(c2)COCC2CN(c4ncc(F)cn4)CCN32)n1C (stereo not drawn) [Example 39, 2-(3-(2-fluorophenyl)-1,5-dimethyl-1H-pyrrol-2-yl)-N-(3-(5-fluoropyrimidin-2-yl)-1,2,3,4,4a,5-hexahydro-7H-benzo[e]pyrazine[2,1-c] [1,4]oxazolin-9-yl)-2-oxoacetamide]	0.03	–
–	–	–	–	–	–	–	–	–	–	–	–	Cc1cc(-c2ccccc2F)c(C(=O)C(=O)Nc2cnc3c(c2)OCC2CN(c4ncc(F)cn4)CCN32)n1C (stereo not drawn) [Example 40]	0.06	–

SMILES	CLint scaled [1, 9] [mL/min/kg]	half-life [1, 9] [min]	Remaining, (T = 60 min) [1] [%]	AUC [2, 10] [ng·h/mL]	Cmax [2, 11] [ng/mL]	Tmax [2, 12] [min]	half-life ([2]; SD, rat, plasma, po, 10 mg/kg) [min]	MIC [3] [µg/mL]	CLint scaled [4, 9] [mL/min/kg]	half-life [4, 9] [min]	Remaining, (T = 60 min) [4] [%]	MIC [6] [µg/mL]	ATCC 204305: MIC [6] [µg/mL]	also measured
Cc1cc(-c2ccccc2F)c(C(=O)C(=O)Nc2ccc3c(c2)C[C@H]2CN(c4ncc(F)cn4)CCN32)n1C [Example 38, (S)-2-(3-(2-fluorophenyl)-1,5-dimethyl-1H-pyrrol-2-yl)-N-(2-(5-fluoropyrimidin-2-yl)-1,2,3,4,10,10a-hexahydropyrazino[1,2-a]indol-8-yl)-2-oxyacetamide]	–	–	25.3	–	–	–	–	–	–	–	24.5	–	0.008	CLint [1, 9]: 40.7 mL/min/kg; T1/2 [1, 9]: 30.7 min; day 7 survival rate ([8]; 3 mg/kg (bid) orally for 6 days, started 24 hours after infection): 50%; survival time of mouses ([8]; oral, bid): prolong the survival time; AUC [2]: 41566.714 ng·h/mL; Cmax [2]: 3053.085 ng/mL; Tmax [2]: 60 min; T½ [2]: 672.12 min; CLint [4, 9]: 85.1 mL/min/kg; T1/2 [4, 9]: 29.3 min
